PubChem BioAssay (NCI)
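Each compound was tested at five concentrations against cells in 96-well plates for 48 hours. At the TGI there is no net growth.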

Key:
Assay in all cases: inhibition of tumour cell growth, NCI panel, 48 h
K-562 leukemia = test system: K-562 leukemia
ACHN renal = test system: ACHN renal
T-47D breast = test system: T-47D breast
OVCAR-3 ovarian = test system: OVCAR-3 ovarian
MDA-MB-231 breast = test system: MDA-MB-231 breast
COLO 205 colon = test system: COLO 205 colon
HCC-2998 colon = test system: HCC-2998 colon
786-0 renal = test system: 786-0 renal
RPMI-8226 leukemia = test system: RPMI-8226 leukemia
CCRF-CEM leukemia = test system: CCRF-CEM leukemia
RXF 393 renal = test system: RXF 393 renal
NCI-H460 lung = test system: NCI-H460 lung
OVCAR-5 ovarian = test system: OVCAR-5 ovarian
PC-3 prostate = test system: PC-3 prostate
NCI/ADR-RES ovarian = test system: NCI/ADR-RES ovarian
SNB-19 CNS = test system: SNB-19 CNS
HOP-62 NSCLC = test system: HOP-62 NSCLC
A549 NSCLC = test system: A549 NSCLC
SW-620 colon = test system: SW-620 colon
SK-OV-3 ovarian = test system: SK-OV-3 ovarian
HCT-15 colon = test system: HCT-15 colon
HS 578T breast = test system: HS 578T breast
TK-10 renal = test system: TK-10 renal
MOLT-4 leukemia = test system: MOLT-4 leukemia
HOP-92 NSCLC = test system: HOP-92 NSCLC
OVCAR-4 ovarian = test system: OVCAR-4 ovarian
MDA-N = test system: MDA-N
SF-539 CNS = test system: SF-539 CNS
IGROV1 ovarian = test system: IGROV1 ovarian
MALME-3M melanoma = test system: MALME-3M melanoma
A498 renal = test system: A498 renal
LOX IMVI melanoma = test system: LOX IMVI melanoma
SK-MEL-2 melanoma = test system: SK-MEL-2 melanoma
SN12C renal = test system: SN12C renal
SF-268 CNS = test system: SF-268 CNS
UACC-257 melanoma = test system: UACC-257 melanoma
UO-31 renal = test system: UO-31 renal
SF-295 CNS = test system: SF-295 CNS
DU-145 prostate = test system: DU-145 prostate
SK-MEL-28 melanoma = test system: SK-MEL-28 melanoma
NCI-H23 lung = test system: NCI-H23 lung
HCT-116 colon = test system: HCT-116 colon
HL-60(TB) leukemia = test system: HL-60(TB) leukemia
MDA-MB-435 = test system: MDA-MB-435
MCF7 breast = test system: MCF7 breast
SNB-75 CNS = test system: SNB-75 CNS
KM12 colon = test system: KM12 colon
SK-MEL-5 melanoma = test system: SK-MEL-5 melanoma
UACC-62 melanoma = test system: UACC-62 melanoma
U251 CNS = test system: U251 CNS
HT29 colon = test system: HT29 colon
CAKI-1 renal = test system: CAKI-1 renal
BT-549 breast = test system: BT-549 breast
M14 melanoma = test system: M14 melanoma
SR leukemia = test system: SR leukemia

[N-]=[N+]=Nc1nc2ccccc2c(N=[N+]=[N-])c1Cl
TGI (K-562 leukemia): > 100 µM | TGI (ACHN renal): > 100 µM | TGI (T-47D breast): > 100 µM | TGI (OVCAR-3 ovarian): > 100 µM | TGI (MDA-MB-231 breast): > 100 µM | TGI (COLO 205 colon): > 100 µM | TGI (HCC-2998 colon): > 100 µM | TGI (786-0 renal): > 100 µM | TGI (RPMI-8226 leukemia): > 100 µM | TGI (CCRF-CEM leukemia): > 100 µM | TGI (RXF 393 renal): > 100 µM | TGI (NCI-H460 lung): > 100 µM | TGI (OVCAR-5 ovarian): > 100 µM | TGI (PC-3 prostate): > 100 µM | TGI (NCI/ADR-RES ovarian): > 100 µM | TGI (SNB-19 CNS): > 100 µM | TGI (HOP-62 NSCLC): > 100 µM | TGI (A549 NSCLC): > 100 µM | TGI (SW-620 colon): > 100 µM | TGI (SK-OV-3 ovarian): > 100 µM | TGI (HCT-15 colon): > 100 µM | TGI (HS 578T breast): > 100 µM | TGI (TK-10 renal): > 100 µM | TGI (MOLT-4 leukemia): > 100 µM | TGI (HOP-92 NSCLC): > 100 µM | TGI (OVCAR-4 ovarian): > 100 µM | TGI (MDA-N): > 100 µM | TGI (SF-539 CNS): > 100 µM | TGI (IGROV1 ovarian): > 100 µM | TGI (MALME-3M melanoma): > 100 µM | TGI (A498 renal): 46.9 µM | TGI (LOX IMVI melanoma): > 100 µM | TGI (SK-MEL-2 melanoma): > 100 µM | TGI (SN12C renal): > 100 µM | TGI (SF-268 CNS): > 100 µM | TGI (UACC-257 melanoma): > 100 µM | TGI (UO-31 renal): > 100 µM | TGI (SF-295 CNS): > 100 µM | TGI (DU-145 prostate): > 100 µM | TGI (SK-MEL-28 melanoma): > 100 µM | TGI (NCI-H23 lung): > 100 µM | TGI (HCT-116 colon): > 100 µM | TGI (HL-60(TB) leukemia): > 100 µM | TGI (MDA-MB-435): > 100 µM | TGI (MCF7 breast): > 100 µM | TGI (SNB-75 CNS): > 100 µM | TGI (KM12 colon): > 100 µM | TGI (SK-MEL-5 melanoma): > 100 µM | TGI (UACC-62 melanoma): > 100 µM | TGI (U251 CNS): > 100 µM | TGI (HT29 colon): > 100 µM | TGI (CAKI-1 renal): > 100 µM | TGI (BT-549 breast): 89.6 µM | TGI (M14 melanoma): > 100 µM | TGI (SR leukemia): > 100 µM
